Assay results taken from US20240269139A1, “COMPOUNDS FOR TARGETED PROTEIN DEGRADATION OF KINASES” (DANA-FARBER CANCER INSTITUTE, INC., priority 2020, published 2024).
Where two headings read alike, the source gives them in different places.

What was measured:
Type in all cases: cell-based
[1] = target: protein kinases (human kinome) (Homo sapiens, UniProt P41240); details: for logFC of CSK: Accession P41240; for logFC CSK: CSK (P41240), down
[2] = target: T1, protein kinases (human kinome) (Homo sapiens, UniProt Q14CZ7); details: Accession Q14CZ7, direction down
T1 sequence (Q14CZ7 1-662): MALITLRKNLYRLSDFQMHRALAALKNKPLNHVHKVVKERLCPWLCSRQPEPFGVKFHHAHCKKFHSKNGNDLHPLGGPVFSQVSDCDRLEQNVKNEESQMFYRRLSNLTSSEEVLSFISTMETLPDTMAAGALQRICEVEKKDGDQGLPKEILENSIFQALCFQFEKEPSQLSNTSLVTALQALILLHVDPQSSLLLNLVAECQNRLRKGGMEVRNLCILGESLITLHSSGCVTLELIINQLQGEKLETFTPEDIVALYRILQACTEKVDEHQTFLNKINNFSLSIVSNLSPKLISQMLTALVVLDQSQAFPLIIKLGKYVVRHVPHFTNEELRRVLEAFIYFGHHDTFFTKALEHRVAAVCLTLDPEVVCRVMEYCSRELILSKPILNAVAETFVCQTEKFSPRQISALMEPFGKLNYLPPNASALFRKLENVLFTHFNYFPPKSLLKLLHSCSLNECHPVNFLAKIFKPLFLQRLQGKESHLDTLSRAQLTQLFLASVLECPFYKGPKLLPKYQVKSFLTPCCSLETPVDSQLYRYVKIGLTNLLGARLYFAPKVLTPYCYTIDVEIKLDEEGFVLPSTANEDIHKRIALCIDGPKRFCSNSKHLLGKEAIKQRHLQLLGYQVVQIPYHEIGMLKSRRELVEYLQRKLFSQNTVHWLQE

[3] = target: T2, protein kinases (human kinome) (Homo sapiens, UniProt Q53H12); details: direction down
T2 sequence (Q53H12 1-422): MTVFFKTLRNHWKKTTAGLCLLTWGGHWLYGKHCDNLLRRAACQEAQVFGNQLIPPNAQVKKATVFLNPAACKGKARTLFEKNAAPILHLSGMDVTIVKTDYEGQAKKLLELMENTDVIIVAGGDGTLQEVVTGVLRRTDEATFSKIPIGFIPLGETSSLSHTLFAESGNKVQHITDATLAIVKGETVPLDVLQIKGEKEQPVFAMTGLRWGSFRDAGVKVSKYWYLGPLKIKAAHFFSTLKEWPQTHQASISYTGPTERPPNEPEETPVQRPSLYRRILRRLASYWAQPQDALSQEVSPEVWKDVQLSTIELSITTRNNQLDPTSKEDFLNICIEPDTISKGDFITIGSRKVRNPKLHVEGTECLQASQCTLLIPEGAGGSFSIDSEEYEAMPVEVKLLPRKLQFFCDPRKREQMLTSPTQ

[4] = target: T3, protein kinases (human kinome) (Homo sapiens, UniProt Q96L34); details: for logFC MARK4: Accession Q96L34-1
T3 sequence (Q96L34 1-752): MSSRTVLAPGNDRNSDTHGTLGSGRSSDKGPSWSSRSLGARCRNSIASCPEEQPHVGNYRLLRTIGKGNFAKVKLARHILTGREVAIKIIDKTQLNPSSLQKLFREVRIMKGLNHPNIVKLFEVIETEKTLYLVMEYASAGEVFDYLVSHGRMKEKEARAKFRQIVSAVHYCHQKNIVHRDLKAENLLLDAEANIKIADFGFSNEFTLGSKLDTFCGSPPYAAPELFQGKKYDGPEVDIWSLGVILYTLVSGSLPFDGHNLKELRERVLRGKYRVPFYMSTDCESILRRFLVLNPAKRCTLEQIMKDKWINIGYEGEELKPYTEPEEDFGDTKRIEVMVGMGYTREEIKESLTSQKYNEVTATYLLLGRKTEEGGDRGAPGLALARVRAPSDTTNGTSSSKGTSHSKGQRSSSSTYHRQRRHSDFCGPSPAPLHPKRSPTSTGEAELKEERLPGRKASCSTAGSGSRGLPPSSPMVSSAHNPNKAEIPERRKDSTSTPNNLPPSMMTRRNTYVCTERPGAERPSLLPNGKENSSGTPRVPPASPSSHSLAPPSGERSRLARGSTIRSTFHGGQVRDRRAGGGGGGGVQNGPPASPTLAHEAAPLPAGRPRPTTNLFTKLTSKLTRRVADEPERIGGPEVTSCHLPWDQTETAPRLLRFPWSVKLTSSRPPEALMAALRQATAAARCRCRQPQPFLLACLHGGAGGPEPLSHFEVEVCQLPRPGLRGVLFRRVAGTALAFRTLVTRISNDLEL

[5] = target: protein kinases (human kinome) (Homo sapiens, UniProt Q9NYV4)
[6] = Accession Q9NYV4-1, experiment wp016
[7] = CDK12 (Q9NYV4-1), experiment wp016

Sequence of protein kinases (human kinome) (Homo sapiens, UniProt P41240) (P41240 whole entry): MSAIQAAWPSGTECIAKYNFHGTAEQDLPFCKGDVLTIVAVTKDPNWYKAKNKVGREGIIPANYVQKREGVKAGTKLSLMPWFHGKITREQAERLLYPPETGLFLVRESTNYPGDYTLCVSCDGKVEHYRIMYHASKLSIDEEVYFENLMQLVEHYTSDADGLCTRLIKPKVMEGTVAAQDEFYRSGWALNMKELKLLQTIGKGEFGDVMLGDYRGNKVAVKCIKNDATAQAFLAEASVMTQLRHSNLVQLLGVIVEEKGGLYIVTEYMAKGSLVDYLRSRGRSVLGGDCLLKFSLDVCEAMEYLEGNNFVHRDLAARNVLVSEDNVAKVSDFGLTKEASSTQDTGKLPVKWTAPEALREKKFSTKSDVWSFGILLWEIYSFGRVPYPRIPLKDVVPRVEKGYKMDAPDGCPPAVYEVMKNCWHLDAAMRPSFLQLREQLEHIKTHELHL
Sequence of protein kinases (human kinome) (Homo sapiens, UniProt Q9NYV4) (Q9NYV4 whole entry): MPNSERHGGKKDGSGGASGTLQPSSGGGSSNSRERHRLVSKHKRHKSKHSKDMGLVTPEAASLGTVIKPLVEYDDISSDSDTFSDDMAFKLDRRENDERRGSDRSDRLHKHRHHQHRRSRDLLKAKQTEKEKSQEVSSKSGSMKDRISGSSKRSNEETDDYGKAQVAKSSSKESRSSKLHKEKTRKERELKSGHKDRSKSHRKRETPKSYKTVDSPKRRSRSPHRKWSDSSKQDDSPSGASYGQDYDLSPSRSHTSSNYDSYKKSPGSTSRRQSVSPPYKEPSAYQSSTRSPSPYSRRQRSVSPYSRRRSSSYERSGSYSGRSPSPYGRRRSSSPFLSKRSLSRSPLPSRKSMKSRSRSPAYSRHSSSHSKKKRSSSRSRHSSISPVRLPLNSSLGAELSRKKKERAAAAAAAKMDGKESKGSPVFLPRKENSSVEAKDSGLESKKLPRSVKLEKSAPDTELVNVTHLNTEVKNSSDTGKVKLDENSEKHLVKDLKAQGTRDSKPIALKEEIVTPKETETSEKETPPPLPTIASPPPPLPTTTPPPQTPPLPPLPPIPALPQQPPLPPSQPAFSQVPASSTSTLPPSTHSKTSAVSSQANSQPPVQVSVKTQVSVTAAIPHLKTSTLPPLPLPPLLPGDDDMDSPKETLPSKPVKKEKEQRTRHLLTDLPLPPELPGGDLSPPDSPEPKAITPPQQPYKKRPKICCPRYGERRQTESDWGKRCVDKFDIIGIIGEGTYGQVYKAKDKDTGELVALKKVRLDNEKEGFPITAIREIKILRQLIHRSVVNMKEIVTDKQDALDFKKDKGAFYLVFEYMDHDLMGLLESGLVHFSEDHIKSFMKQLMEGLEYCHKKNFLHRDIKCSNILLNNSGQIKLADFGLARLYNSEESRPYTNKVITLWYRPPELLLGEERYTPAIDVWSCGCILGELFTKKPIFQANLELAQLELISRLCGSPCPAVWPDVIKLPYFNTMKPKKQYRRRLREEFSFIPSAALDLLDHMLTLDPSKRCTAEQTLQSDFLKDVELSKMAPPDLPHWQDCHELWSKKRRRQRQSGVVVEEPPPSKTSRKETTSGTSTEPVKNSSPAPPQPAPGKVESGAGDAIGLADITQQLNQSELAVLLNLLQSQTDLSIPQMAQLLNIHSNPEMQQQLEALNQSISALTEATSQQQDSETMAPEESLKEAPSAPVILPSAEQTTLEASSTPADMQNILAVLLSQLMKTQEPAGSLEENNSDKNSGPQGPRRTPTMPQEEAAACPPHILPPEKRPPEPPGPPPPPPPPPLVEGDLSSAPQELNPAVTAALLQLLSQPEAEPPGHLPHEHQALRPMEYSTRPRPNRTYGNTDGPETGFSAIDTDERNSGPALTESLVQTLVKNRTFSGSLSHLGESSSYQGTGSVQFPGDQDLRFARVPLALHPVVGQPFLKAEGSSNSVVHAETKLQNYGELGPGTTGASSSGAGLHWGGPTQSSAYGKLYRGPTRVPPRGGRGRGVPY

SMILES: Cc1ccc(NC(=O)c2cccc(C(F)(F)F)c2)cc1N1Cc2cnc(Nc3ccc(N4CCN(Cc5cn(CCCCCOc6cccc7c6C(=O)N(C6CCC(=O)NC6=O)C7=O)nn5)CC4)nc3)nc2N(C)C1=O (centres unmarked) [DB0646, N-(3-(7-((6-(4-((1-(5-((2-(2,6-Dioxopiperidin-3-yl)-1,3-dioxoisoindolin-4-yl)oxy)pentyl)-1H-1,2,3-triazol-4-yl)methyl)piperazin-1-v)pyridin-3-yl)amino)-1-methyl-2-oxo-1,4-dihydropyrimido[4,5-d]pyrimidin-3(2H)-yl)-4-methylphenyl)-3-(trifluoromethyl)benzamide]
- logFC of CSK ([1]; experiment wp045): −1.542
- logFC of CSK ([1]; experiment wp103): −1.282
- logFC of CSK ([1]; experiment wp105): −0.6868
- logFC of CSK ([1]; experiment wp107): −1.311
- logFC of CSK ([1]; experiment wp114): −0.6932
- logFC of CSK ([1]; experiment wp117): −1.414
- logFC of CSK ([1]; experiment wp152): −1.513
- logFC of CSK ([1]; experiment wp160, 2 hr): −0.8308
- logFC of CSK ([1]; experiment wp160, 4 hr): −1.416
- logFC of CSK ([1]; experiment wp160, 8 hr): −1.753
- logFC of CSK ([1]; experiment wp172): −0.8538
- logFC CSK ([1]; experiment wp045): −1.542
- logFC CSK ([1]; experiment wp103): −1.282
- logFC CSK ([1]; experiment wp105): −0.6868
- logFC CSK ([1]; experiment wp107): −1.311
- logFC CSK ([1]; experiment wp114): −0.6932
- logFC CSK ([1]; experiment wp117): −1.414
- logFC CSK ([1]; experiment wp152): −1.513
- logFC CSK ([1]; experiment wp160, 2 hr): −0.8308
- logFC CSK ([1]; experiment wp160, 4 hr): −1.416
- logFC CSK ([1]; experiment wp160, 8 hr): −1.753
- logFC CSK ([1]; experiment wp172): −0.8538
- logFC FASTKD3 ([2]; experiment wp152): −0.3418

SMILES: C=CCn1c(=O)c2cnc(Nc3ccc(N4CCN(CCCNc5cccc6c5C(=O)N(C5CCC(=O)NC5=O)C6=O)CC4)cc3)nc2n1-c1cccc(C(C)(C)O)n1 (centres unmarked) [ZNL.02.096]
- logFC FASTKD3 ([2]; experiment wp056): −0.7131
- logFC AGK (Q53H12) ([3]; Experiment wp056): −0.5514

SMILES: CN(C)C(=O)c1cc2cnc(Nc3ccc(N4CCN(CCCCNC(=O)COc5cccc6c5C(=O)N(C5CCC(=O)NC5=O)C6=O)CC4)cn3)nc2n1C1CCCC1 (centres unmarked) [BSJ.04.132]
- logFC FASTKD3 ([2]; experiment wp084): −0.5428
- logFC AGK (Q53H12) ([3]; Experiment wp084): −0.6709

SMILES: O=C(COc1cccc2c1C(=O)N(C1CCC(=O)NC1=O)C2=O)NCCCCCCCC(=O)NC1(c2ccc(-c3nc4ccn5c(=O)[nH]nc5c4cc3-c3ccccc3)cc2)CCC1 (centres unmarked) [INY.01.140.1]
- logFC FASTKD3 ([2]; experiment wp081): −0.3846
- logFC AGK (Q53H12) ([3]; Experiment wp081): −0.4936

SMILES: CC(C)S(=O)(=O)c1ccccc1Nc1nc(Nc2ccc(N3CCN(CCOCCOCCNC(=O)CNc4cccc5c4C(=O)N(C4CCC(=O)NC4=O)C5=O)CC3)cc2)ncc1Cl (centres unmarked) [TL12.186]
- logFC FASTKD3 ([2]; experiment wp137): −0.6244
- logFC MARK4 ([4]; experiment wp137): −1.298
- logFC MARK4 (Q96L34-1) ([4]; experiment wp131): −1.829
- logFC MARK4 (Q96L34-1) ([4]; experiment wp137): −1.298
- logFC CDK12 [5, 6]: −0.9185
- logFC CDK12 ([5]; Accession Q9NYV4-1, experiment wp131): −1.402
- logFC CDK12 [5, 7]: −0.9185
- logFC CDK12 ([5]; CDK12 (Q9NYV4-1), experiment wp131): −1.402

SMILES: CC(=O)c1c(C)c2cnc(Nc3ccc(N4CCN(CCOCCOCCOCCNC(=O)COc5cccc6c5C(=O)N(C5CCC(=O)NC5=O)C6=O)CC4)cn3)nc2n(C2CCCC2)c1=O (centres unmarked) [BSJ.03.123]
- logFC FASTKD3 ([2]; experiment wp084): −0.4728
- logFC AGK (Q53H12) ([3]; Experiment wp084): −0.6506

SMILES: CC(C)S(=O)(=O)c1ccccc1Nc1nc(Nc2ccc(N3CCN(CCOCCNC(=O)CNc4cccc5c4C(=O)N(C4CCC(=O)NC4=O)C5=O)CC3)cc2)ncc1Cl (centres unmarked) [SK.3.91]
- logFC of CSK ([1]; experiment wp016): −0.3254
- logFC of CSK ([1]; experiment wp016, 1 uM): −0.6596
- logFC of CSK ([1]; experiment wp103): −0.4343
- logFC of CSK ([1]; experiment wp105): −0.7044
- logFC of CSK ([1]; experiment wp107): −0.5646
- logFC of CSK ([1]; experiment wp133, 4 hr): −0.5492
- logFC of CSK ([1]; experiment wp160, 4 hr): −0.4976
- logFC of CSK ([1]; experiment wp172): −0.4225
- logFC CSK ([1]; experiment wp016, 1 uM): −0.6596
- logFC CSK ([1]; experiment wp016): −0.3254
- logFC CSK ([1]; experiment wp103): −0.4343
- logFC CSK ([1]; experiment wp105): −0.7044
- logFC CSK ([1]; experiment wp107): −0.5646
- logFC CSK ([1]; experiment wp133, 4 hr): −0.5492
- logFC CSK ([1]; experiment wp160, 4 hr): −0.4976
- logFC CSK ([1]; experiment wp172): −0.4225
- logFC FASTKD3 ([2]; experiment wp160, 1 hr): −0.997
- logFC MARK4 ([4]; experiment wp103): −1.326
- logFC MARK4 ([4]; experiment wp107): −1.292
- logFC MARK4 ([4]; experiment wp114): −1.3
- logFC MARK4 ([4]; experiment wp133, 2 hr): −0.6282
- logFC MARK4 ([4]; experiment wp133, 4 hr): −1.537
- logFC MARK4 ([4]; experiment wp160, 4 hr): −1.529
- logFC MARK4 (Q96L34-1) ([4]; experiment wp103): −1.326
- logFC MARK4 (Q96L34-1) ([4]; experiment wp107): −1.292
- logFC MARK4 (Q96L34-1) ([4]; experiment wp114): −1.3
- logFC MARK4 (Q96L34-1) ([4]; experiment wp133, 2 hr): −0.6282
- logFC MARK4 (Q96L34-1) ([4]; experiment wp133, 4 hr): −1.537
- logFC MARK4 (Q96L34-1) ([4]; experiment wp160, 4 hr): −1.529
- logFC CDK12 [5, 6]: −1.134
- logFC CDK12 ([5]; Accession Q9NYV4-1, experiment wp016, 1 uM): −0.9325
- logFC CDK12 ([5]; Accession Q9NYV4-1, experiment wp172): −1.234
- logFC CDK12 [5, 7]: −1.134
- logFC CDK12 ([5]; CDK12 (Q9NYV4-1), experiment wp016, 1 uM): −0.9325
- logFC CDK12 ([5]; CDK12 (Q9NYV4-1), experiment wp172): −1.234
